These are literature values, as cited in US12268783B2, “Platform drug delivery system utilizing crystal engineering and theanine dissolution” (THEAPRIN PHARMACEUTICALS, INC., priority 2015, dated 2025).

The data set deals with Chironex fleckeri venom. The following applies: mice following venom injection.

Regarding zinc gluconate, the survival time result is on record as “prolonged survival time”.
